Measurements: patent US12193465B2, “Materials and methods for extending shelf-life of foods” (JP Laboratories, Inc., priority 2021, dated 2025)
“And” between values parts separate entries of the source, which are not always exact repeats. Equal values may be shown once. “Also recorded” adds a separate entry of the source.

Columns and labels:
fungus = assay: Fungus growth on treated foods stored in closed containers at room temperature; details: for Spoilage Time - Sample: Fungus;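 as to Effectiveness on ginger: compared with untreated control ginger in closed containers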
Text: (§1) Most of the foods changed color or texture.
Glass jars and bottles were also used. The containers were snap-closed or with a lid.
(§2) These bags were sealed with a heat sealer.
(§3) The assembly was shaken periodically.

[1] = Curdling / cream / solidification of milk
Text: as §1

[2] = tested on: grains, legumes, potatoes, garlic; assay: Germination / sprouting of grains, legumes and tubers
Text: as §2, §3

[3] = Odor and softening/mushiness of pre-soaked grains; details: Odor, White rice, control 5 days
Text: as §1, §2

[4] = Gas formation (gassed dome) of fresh juice; details: Example 65, Orange juice, 0.02 g, control 4 days
Text: as §1

yeast = assay: Rising of dough; details: Example 74; Freshly prepared dough for bread; 1% in 100 g flour
Text: On a control sample of freshly prepared dough, rising could continuously be observed throughout the day.

[5] = General shelf-life extension of foods (spoilage criteria of Example 9)

**Q.** What does the source list for C=CCN=C=S [AI, allyl isothiocyanate]?
**A.** Fungus growth (fungus; Example 12, Paneer (Indian cottage cheese), sachet): > 10 days; Spoilage Time - Sample (fungus; Example 20, Apple juice, 0.02 g, control 7 days): 13 days; Spoilage Time - Sample (fungus; Example 21, Beet juice, 0.02 g, control 7 days): 13 days; Spoilage Time - Sample (fungus; Example 22, Blueberries, 16 hrs P-E, control 3 days): 24 days; Spoilage Time - Sample (fungus; Example 25, Broccoli, 0.25 hr P-E, control 6 days): 9 days; Spoilage Time - Sample (fungus; Example 26, Broccoli, Sachet, control 6 days): 9 days; Spoilage Time - Sample (fungus; Example 27, Broccoli, 2 hrs P-E, control 5 days): 16 days; Spoilage Time - Sample (fungus; Example 28, Carrot juice, 0.02 g, control 12 days): 13 days; Spoilage Time - Sample (fungus; Example 30, Chickpeas, Sachet, control 7 days): 9+ days; Spoilage Time - Sample (fungus; Example 33, Fresh, raw, shelled undried peanuts, Sachet, control 18 days): 46 days; Spoilage Time - Sample (fungus; Example 33, Fresh, raw, shelled undried peanuts, Sachet, control 18 days, listed as allyl isothiocyanate): significantly delayed or prevented; Spoilage Time - Sample (fungus; Example 35, 5.3% Gelatin, 175 bloom in water, Sachet, control 9 days): 47 days; Spoilage Time - Sample (fungus; Example 37, 4% Guar Gum in water, Sachet, control 5 days): 47 days; Spoilage Time - Sample (fungus; Example 39, Guar beans, 2 hrs P-E, control 6 days): 17 days; Spoilage Time - Sample (fungus; Example 40, Honeydew juice, 0.02 g, control 12 days): 30 days; Spoilage Time - Sample (fungus; Example 42, Lychee, 0.5 hr P-E, control 7 days): 11 days; Spoilage Time - Sample (fungus; Example 44, Mixed Legumes, 64 hrs P-E, 6 hrs soaking, control 11 days): 17 days; Spoilage Time - Sample (fungus; Example 45, Monterey cheese, Sachet, control 7 days): 10+ days; Spoilage Time - Sample (fungus; Example 45, Monterey cheese, Sachet, control 7 days, listed as allyl isothiocyanate): > 10 days; Spoilage Time - Sample (fungus; Example 47, Pomegranate juice, 0.02 g, control 7 days): 13 days; Spoilage Time - Sample (fungus; Example 48, Puri (Indian fried bread), 16 hrs P-E, control 5 days): 70+ days; Spoilage Time - Sample (fungus; Example 49, Raspberry, 1 hr P-E, control 5 days): 9 days; Spoilage Time - Sample (fungus; Example 50, Raspberry, 0.33 hr P-E, control 5 days): 31 days; Spoilage Time - Sample (fungus; Example 51, Raw milk cheddar cheese, 1 hr P-E & Sachet, control 6 days): 35 days; Spoilage Time - Sample (fungus; Example 53, Rotala (Indian millet bread), 16 hrs P-E, control 5 days): 70+ days; Spoilage Time - Sample (fungus; Example 56, 26.7% Starch solution in water, 0.25 ml of 0.42% solution, control 5 days): 47 days; Spoilage Time - Sample (fungus; Example 57, 26.7% Starch solution in water, Sachet, control 5 days): 47 days; Spoilage Time - Sample (fungus; Example 58, Strawberries, 5 hrs P-E, control 2 days): 15 days; Spoilage Time - Sample (fungus; Example 59, Tindora, 2 hrs P-E, control 6 days): 40 days; Spoilage Time - Sample (fungus; Example 60, Tofu, Sachet, control 6 days): 9+ days; Spoilage Time - Sample (fungus; Example 60, Tofu, Sachet, control 6 days, listed as allyl isothiocyanate): > 9 days; Spoilage Time - Sample (fungus; Example 62, Unshelled peanuts, 5 ml of 0.42% solution, control 5 days): 8 days; Spoilage Time - Sample (fungus; Example 62, Unshelled peanuts, 5 ml of 0.42% solution, control 5 days, listed as allyl isothiocyanate): either prevented or significantly delayed; Spoilage Time - Sample (fungus; Example 63, Wild Rice, 5 ml of 10% allyl isothiocyanate solution in water, control 11 days): 21 days; Spoilage Time - Sample (fungus; Example 64, Wild Rice, Sachet, control 11 days): 21 days; Spoilage Time - Sample (fungus; Example 89, Mixed Legumes, AI & Humidity, 64 hrs P-E AI, 6 hrs soaking in water, control 11 days): 17 days; Fungus growth (fungus; Indian millet bread, Indian wheat bread (roti), cheesecake, sachet or pre-exposure to vapors): either prevented or significantly delayed; Effectiveness in preventing fungus (fungus; compared with ethyl isothiocyanate): more effective; Fungus growth (fungus; fresh cold pressed carrot, red cabbage and beet juice, Examples 28, 21, 13): either prevented or significantly delayed; Fungus growth (fungus; fresh cold pressed pomegranate, blackberry, orange, red grape, apple, blueberry and honeydew juice): either prevented or significantly delayed; Shelf-life of vegetable juices (fungus; fresh, cold pressed tomatillo, lime and green cabbage juices): improved shelf-life; Effectiveness on ginger (fungus; ginger, pre-exposure and sachet method): found effective; Fungus growth (fungus; guar gum and starch, Examples 37, 56 & 57): either prevented or significantly delayed; Shelf-life of raw milk yogurt (fungus; raw milk yogurt): extended shelf-life; Fungus growth (fungus; strawberries, raspberries, blackberries and lychee): either prevented or significantly delayed; Spoilage Time - Sample ([1]; Example 16, Cream, Raw cow milk, 0.07 g, control 3 days): 24 days; Spoilage Time - Sample ([1]; Example 17, Curdling, Milk (pasteurized, whole milk), 0.10 g, control 2 days): 16 days; Spoilage Time - Sample ([1]; Example 18, Curdling, Milk & Yogurt (whole milk & yogurt) mix, 0.10 g, control 2 days): 16 days; Spoilage Time - Sample ([1]; Example 18, Curdling, Milk & Yogurt (whole milk & yogurt) mix, 0.10 g, control 2 days, listed as allyl isothiocyanate): > 16 days; Spoilage Time - Sample ([1]; Example 19, Curdling, Milk (pasteurized, whole milk), 0.05 g, control 2 days): 28 days; Spoilage Time - Sample ([1]; Example 19, Curdling, Milk (pasteurized, whole milk), 0.05 g, control 2 days, listed as allyl isothiocyanate): > 28 days and > 21 days; Spoilage Time - Sample ([2]; Example 66, Germination, Mixed Legumes (T), 0.10 g, control 3 days): 9 days; Spoilage Time - Sample ([2]; Example 67, Germination, Mixed Legumes, Sachet, control 4 days): 21 days; Spoilage Time - Sample ([2]; Example 67, Germination, Mixed Legumes, Sachet, control 4 days, listed as allyl isothiocyanate): > 21 days; Spoilage Time - Sample ([2]; Example 68, Germination, Mixed Legumes, Sachet, control 3 days): 9 days; Spoilage Time - Sample ([2]; Example 69, Germination, Soft White Wheat, Sachet, control 4 days): 21 days; Spoilage Time - Sample ([2]; Example 70, Germination, Soft White Wheat, 5 ml of 10% allyl isothiocyanate solution in water, control 4 days): 21 days; Spoilage Time - Sample ([2]; Example 71, Germination, Unshelled Rice, Sachet, control 3 days): 15 days; Spoilage Time - Sample ([2]; Example 79, Sprouting, Red Potatoes, 2 hrs P-E, control 9 days): 16 days; Spoilage Time - Sample ([2]; Example 80, Sprouting, Mix of red, purple and yellow potatoes, 4 hrs P-E, control 22 days): 46 days; Spoilage Time - Sample ([2]; Example 81, Sprouting, Fingerling Potatoes, 2 hrs P-E, control 37 days): 59 days; Spoilage Time - Sample ([2]; Example 82, Sprouting, Sprouted Garlic, 0.5 hr P-E, control 4 days): 4+ days; Spoilage Time - Sample ([2]; Example 82, Sprouting, Sprouted Garlic, 0.5 hr P-E, control 4 days, listed as allyl isothiocyanate): no further growth of sprouts; Germination and/or fungus ([2]; flooded shelled peanuts, a drop in flooded water, control 5 days): > 8 days; Sprouting ([2]; various types of potatoes, vapor or sachet, Examples 79-81): either prevented or significantly delayed; Spoilage Time - Sample ([3]; Example 72, 5 ml of 10% allyl isothiocyanate solution in water): 21 days; Spoilage Time - Sample ([3]; Example 72, 5 ml of 10% allyl isothiocyanate solution in water, listed as allyl isothiocyanate): > 21 days; Spoilage Time - Sample ([3]; Example 73, Sachet): 21 days; Spoilage Time - Sample [4]: 12 days; Rise of dough (yeast): did not rise; also recorded: allyl isothiocyanate is capable of killing yeast; Shelf-life of flowery vegetables ([5]; flowery vegetables): extended shelf-life; Shelf-life extension ([5]; tindora dipped in solution): demonstrated shelf-life extension; Effectiveness as shelf-life extender ([5]; tofu): effective; Effectiveness for controlling one or more spoilage criteria ([5]; variety of foods): effective to a greater or lesser extent
